Experimental data from US20240117303A1, “METHODS AND COMPOSITIONS FOR GENERATING HUMAN MIDBRAIN DOPAMINERGIC NEURONS FROM NEURAL PROGENITOR CELLS” (Trailhead Biosystems Inc., priority 2022, published 2024).

System: human pluripotent stem cells
Experiment: HD-DoE 13-factor experiment for stage 1 recipe, gene expression modeled after 3-day treatment; dynamic profile and factor criticality analysis
Assay type: cell-based
How it was run: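 Human pluripotent stem cells given 13-factor effector combinations (e.g. LDN193189, CHIR99021, PD0325901) for 3 days; expression of 53 preselected genes modeled, focusing on OTX2, DMBX1, FOXA2, LMX1A and GBX2. Factor criticality assessed by removing each of five finalized factors and comparing with all five present.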

Question: For `Cc1c[nH]c(-c2cnc(NCCNc3ccc(C#N)cn3)nc2-c2ccc(Cl)cc2Cl)n1` [CHIR99021], which “impact on expression of FOXA2” value (dynamic profile, 13 effectors) is on record?
Answer: Its value is “positive impact”.

Question: What about the “impact on expression of OTX2” value (dynamic profile, 13 effectors) of the same compound?
Answer: Its value is “positive impact”.

Question: What about the factor contribution (model optimized for maximum expression of FOXA2, positive effect) of the same compound?
Answer: Its factor contribution is 15.6.

Question: What about the factor contribution (model optimized for maximum expression of OTX2, positive impact, 3-day treatment) of the same compound?
Answer: Its factor contribution is 13.5.

Question: What about the “expression level of LMX1A in absence of the factor” value (stage 1 recipe, other four factors present, 300 with all five factors) of the same compound?
Answer: The value was “reduced”.

Question: What about the “expression level of FOXA2 in absence of the factor” value (stage 1 recipe, other four factors present, 600 with all five factors) of the same compound?
Answer: Its value is “reduced”.

Question: And the “expression level of DMBX1 in absence of the factor” value (stage 1 recipe, other four factors present, 3000 with all five factors)?
Answer: Its value is “reduced”.

Question: And the “expression level of OTX2 in absence of the factor” value (stage 1 recipe, other four factors present, 12000 with all five factors)?
Answer: The value was “reduced”.
